Results from US7326721B2 (Hypnion, Inc., priority 2003, dated 2008).
Like-named read-outs stand apart in the source and are kept apart here.

Key:
M2 muscarinic receptor = biological target: T1, M2 muscarinic receptor (Homo sapiens, UniProt P08172); assay: Muscarinic M2 binding assay; set-up: purchased PerkinElmer, Inc., Wellesley, Mass; host or cells: CHO cells
T1 sequence (P08172 1-466): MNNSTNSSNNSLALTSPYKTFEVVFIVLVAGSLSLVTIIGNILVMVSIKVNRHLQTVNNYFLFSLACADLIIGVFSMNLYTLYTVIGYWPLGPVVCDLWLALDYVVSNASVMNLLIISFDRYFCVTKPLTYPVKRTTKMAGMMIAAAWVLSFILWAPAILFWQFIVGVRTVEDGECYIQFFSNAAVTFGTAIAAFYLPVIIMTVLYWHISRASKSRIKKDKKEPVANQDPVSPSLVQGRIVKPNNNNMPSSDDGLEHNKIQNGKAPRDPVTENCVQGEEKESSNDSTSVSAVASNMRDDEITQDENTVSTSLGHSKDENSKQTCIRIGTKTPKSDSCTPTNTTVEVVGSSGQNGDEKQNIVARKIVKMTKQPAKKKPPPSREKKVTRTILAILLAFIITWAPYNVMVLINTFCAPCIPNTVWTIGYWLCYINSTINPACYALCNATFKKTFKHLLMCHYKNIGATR

M3 muscarinic receptor = M3 muscarinic receptor (Homo sapiens, UniProt P20309); assay: Muscarinic M3 binding assay; set-up: purchased PerkinElmer, Inc., Wellesley, Mass; host or cells: CHO cells
Chain of M3 muscarinic receptor (P20309 whole entry): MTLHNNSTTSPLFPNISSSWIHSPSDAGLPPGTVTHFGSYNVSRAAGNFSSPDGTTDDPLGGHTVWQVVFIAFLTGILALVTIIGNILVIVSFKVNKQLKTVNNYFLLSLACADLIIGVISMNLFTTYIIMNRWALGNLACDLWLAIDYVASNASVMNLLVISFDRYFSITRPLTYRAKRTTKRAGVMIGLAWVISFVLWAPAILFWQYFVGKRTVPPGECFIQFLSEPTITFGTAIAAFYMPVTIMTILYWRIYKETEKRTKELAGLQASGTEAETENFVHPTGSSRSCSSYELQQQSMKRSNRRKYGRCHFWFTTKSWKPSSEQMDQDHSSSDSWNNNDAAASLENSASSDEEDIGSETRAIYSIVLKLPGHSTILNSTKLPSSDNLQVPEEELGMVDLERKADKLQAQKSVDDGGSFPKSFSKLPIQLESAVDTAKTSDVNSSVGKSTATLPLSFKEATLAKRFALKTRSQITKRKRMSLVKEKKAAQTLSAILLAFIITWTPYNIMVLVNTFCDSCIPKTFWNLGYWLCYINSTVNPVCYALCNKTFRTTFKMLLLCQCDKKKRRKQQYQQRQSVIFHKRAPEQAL

adult male Wistar rats = assay: SCORE-2000 sleep-wakefulness, locomotor activity and body temperature monitoring; format: in vivo, rat
[1] = biological target: Choline Acetyltransferase (Homo sapiens, UniProt P28329); assay: Table 12 panel: Choline Acetyltransferase; format: biochemical; conditions: 1.0E−6, average N=2
From the text: (§1) The percentage inhibition (average; N=2) for these receptors is shown below in Table 12.
(§2) Values in Table 12 are expressed as percentage inhibition of specific binding, and these values represent the average of replicate tubes at each of the concentrations tested.

Calcium Channel, Type N = Calcium Channel, Type N (Homo sapiens, UniProt Q00975); assay: Table 12 panel: Calcium Channel, Type N; conditions: 1.0E−6, average N=2, read-out: percentage inhibition of specific binding
Chain of Calcium Channel, Type N (Q00975 whole entry): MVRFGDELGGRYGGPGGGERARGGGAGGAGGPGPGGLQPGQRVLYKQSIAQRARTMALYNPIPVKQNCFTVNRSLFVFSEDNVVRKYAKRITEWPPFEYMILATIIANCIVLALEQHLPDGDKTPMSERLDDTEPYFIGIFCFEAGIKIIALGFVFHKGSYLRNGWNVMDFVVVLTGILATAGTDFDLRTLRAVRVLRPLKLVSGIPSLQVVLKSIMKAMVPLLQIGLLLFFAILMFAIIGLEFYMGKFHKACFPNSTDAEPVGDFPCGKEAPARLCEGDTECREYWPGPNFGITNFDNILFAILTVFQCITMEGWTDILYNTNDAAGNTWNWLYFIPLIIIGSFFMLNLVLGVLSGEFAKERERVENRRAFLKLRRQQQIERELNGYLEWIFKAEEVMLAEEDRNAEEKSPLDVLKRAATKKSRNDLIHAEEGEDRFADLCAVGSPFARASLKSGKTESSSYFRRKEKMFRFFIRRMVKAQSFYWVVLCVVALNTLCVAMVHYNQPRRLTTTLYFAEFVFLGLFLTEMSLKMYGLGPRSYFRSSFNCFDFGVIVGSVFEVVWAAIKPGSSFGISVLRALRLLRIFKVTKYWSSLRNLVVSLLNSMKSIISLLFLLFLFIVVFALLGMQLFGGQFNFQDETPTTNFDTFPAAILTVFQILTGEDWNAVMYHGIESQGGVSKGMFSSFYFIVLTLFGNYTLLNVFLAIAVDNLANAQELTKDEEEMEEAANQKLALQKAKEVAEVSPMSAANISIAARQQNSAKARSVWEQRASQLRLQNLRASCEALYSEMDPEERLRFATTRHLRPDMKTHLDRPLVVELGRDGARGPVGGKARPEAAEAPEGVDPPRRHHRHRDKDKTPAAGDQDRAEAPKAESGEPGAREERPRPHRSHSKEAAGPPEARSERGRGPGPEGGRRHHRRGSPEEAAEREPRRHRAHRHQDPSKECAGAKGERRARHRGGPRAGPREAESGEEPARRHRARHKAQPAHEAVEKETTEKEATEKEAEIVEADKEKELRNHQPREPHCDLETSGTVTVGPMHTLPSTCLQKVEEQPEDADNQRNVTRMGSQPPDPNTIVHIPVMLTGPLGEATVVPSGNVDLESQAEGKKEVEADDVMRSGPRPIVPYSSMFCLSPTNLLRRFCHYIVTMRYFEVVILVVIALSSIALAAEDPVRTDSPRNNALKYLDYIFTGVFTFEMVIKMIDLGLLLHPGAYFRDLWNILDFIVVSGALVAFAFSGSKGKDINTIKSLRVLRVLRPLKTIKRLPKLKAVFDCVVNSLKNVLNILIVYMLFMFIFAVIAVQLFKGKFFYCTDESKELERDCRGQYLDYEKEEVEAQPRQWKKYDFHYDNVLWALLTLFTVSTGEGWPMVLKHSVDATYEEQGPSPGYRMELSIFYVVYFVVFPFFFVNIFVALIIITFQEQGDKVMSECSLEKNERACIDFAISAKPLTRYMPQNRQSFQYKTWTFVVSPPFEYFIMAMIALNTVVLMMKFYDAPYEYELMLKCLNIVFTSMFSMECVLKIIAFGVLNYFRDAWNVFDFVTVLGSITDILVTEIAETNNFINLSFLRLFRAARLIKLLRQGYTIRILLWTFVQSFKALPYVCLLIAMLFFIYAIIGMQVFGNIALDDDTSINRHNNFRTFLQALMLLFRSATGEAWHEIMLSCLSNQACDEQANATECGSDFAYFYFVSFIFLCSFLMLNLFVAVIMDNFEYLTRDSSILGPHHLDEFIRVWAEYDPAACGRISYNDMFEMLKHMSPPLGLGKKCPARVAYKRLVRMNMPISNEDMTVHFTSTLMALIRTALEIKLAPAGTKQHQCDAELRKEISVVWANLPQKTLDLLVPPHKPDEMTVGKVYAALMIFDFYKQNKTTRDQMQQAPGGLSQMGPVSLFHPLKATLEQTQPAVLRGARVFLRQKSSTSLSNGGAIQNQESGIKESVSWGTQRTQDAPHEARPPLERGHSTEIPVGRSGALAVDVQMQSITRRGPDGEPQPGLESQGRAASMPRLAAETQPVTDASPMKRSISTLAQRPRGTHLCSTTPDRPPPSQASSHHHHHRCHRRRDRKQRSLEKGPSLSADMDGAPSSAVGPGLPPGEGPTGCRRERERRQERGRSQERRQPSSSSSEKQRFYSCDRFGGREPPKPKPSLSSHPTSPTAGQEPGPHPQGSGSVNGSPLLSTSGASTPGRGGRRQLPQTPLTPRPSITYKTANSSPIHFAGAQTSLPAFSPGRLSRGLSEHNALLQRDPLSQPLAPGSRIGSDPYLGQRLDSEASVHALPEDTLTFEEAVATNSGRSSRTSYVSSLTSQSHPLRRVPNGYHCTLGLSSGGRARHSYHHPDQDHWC
From the text: as §1, §2

H1 histamine receptor = biological target: T2, H1 histamine receptor (Bos taurus, UniProt P30546); assay: Histamine H1 competitive binding assay ([3H]pyrilamine); set-up: species or system bovine
T2 construct: the receptors were obtained from bovine cerebellar membrane tissue; from tissue; host or cells: bovine cerebellar membranes
T2 sequence (P30546 whole entry): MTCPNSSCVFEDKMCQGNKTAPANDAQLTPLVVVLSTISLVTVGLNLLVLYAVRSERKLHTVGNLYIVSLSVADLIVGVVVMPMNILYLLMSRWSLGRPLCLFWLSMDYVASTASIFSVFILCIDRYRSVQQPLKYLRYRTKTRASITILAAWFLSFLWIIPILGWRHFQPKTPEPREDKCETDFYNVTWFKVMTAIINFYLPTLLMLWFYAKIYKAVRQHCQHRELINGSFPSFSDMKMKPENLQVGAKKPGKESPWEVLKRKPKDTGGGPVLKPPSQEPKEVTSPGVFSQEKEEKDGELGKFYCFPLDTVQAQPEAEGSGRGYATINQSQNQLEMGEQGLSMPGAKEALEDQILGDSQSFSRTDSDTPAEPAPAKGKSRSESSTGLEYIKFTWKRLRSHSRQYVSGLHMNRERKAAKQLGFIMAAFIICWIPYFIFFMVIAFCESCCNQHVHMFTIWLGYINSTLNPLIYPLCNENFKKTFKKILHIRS

M1 muscarinic receptor = biological target: T3, M1 muscarinic receptor (Homo sapiens, UniProt P11229); assay: Muscarinic M1 binding assay ([3H]-scopolamine, N-methyl chloride); set-up: purchased PerkinElmer, Inc., Wellesley, Mass; host or cells: CHO cells
T3 sequence (P11229 1-460): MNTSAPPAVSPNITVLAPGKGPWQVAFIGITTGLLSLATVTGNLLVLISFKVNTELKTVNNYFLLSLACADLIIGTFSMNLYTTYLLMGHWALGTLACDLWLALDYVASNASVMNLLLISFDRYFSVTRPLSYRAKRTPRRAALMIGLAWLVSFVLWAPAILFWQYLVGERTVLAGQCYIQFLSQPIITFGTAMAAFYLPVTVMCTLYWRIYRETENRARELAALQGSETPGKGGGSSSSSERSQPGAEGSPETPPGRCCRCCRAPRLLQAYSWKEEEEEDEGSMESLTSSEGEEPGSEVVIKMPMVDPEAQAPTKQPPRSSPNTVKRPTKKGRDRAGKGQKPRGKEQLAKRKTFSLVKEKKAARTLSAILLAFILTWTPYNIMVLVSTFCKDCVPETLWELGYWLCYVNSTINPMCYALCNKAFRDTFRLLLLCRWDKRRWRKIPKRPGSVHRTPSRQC

[2] = biological target: Nitric Oxide, NOS (Neuronal-Binding) (Homo sapiens, UniProt P29475); assay: Table 12 panel: NOS; conditions: 1.0E−6, average N=2, read-out: percentage inhibition of specific binding
Chain of Nitric Oxide, NOS (Neuronal-Binding) (P29475 whole entry): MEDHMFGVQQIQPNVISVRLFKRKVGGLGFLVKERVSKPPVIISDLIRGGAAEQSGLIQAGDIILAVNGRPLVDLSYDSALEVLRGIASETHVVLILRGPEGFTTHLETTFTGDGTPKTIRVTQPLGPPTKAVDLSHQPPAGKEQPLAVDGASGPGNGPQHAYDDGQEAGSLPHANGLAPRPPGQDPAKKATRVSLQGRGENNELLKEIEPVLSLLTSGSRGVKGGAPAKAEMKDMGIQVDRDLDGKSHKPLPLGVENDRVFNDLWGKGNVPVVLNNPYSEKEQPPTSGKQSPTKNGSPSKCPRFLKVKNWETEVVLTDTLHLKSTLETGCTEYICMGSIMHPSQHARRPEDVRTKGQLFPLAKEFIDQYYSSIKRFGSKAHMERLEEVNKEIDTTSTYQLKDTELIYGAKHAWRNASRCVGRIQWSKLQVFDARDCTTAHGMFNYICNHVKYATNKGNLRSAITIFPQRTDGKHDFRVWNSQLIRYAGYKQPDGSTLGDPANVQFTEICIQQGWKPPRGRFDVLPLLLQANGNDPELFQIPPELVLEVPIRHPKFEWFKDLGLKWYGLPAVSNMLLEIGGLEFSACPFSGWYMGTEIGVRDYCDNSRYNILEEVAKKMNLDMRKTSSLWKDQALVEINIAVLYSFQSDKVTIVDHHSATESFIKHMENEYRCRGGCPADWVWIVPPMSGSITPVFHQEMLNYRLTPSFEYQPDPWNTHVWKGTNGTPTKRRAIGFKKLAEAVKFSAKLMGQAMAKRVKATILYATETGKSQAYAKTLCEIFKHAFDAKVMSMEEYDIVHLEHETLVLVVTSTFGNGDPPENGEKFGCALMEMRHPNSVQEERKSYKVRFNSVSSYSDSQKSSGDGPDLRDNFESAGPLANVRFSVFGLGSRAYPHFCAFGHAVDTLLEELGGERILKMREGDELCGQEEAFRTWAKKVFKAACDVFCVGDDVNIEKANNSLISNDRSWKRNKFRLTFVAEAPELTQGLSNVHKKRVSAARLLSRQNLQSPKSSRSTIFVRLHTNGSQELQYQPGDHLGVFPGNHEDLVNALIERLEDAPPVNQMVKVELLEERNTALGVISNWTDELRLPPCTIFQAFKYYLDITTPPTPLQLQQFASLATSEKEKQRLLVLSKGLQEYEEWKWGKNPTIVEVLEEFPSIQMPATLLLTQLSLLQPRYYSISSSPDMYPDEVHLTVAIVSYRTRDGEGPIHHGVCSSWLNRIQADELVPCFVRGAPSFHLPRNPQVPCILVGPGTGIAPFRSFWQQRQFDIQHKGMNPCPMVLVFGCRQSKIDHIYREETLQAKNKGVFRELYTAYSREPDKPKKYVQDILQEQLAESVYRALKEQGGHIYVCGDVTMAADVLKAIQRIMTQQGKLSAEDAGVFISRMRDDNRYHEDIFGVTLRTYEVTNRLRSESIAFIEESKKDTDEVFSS
From the text: as §1, §2

[3] = Protein binding in human plasma; format: in vitro ADME
Protocol: HY2901 was administered to rats, dogs, and cynomolgus monkeys at a dose of 3 mg/kg orally and intravenously. Plasma samples were collected from all species for pharmacokinetic analysis. […] HY2901 is 75% protein bound in rat plasma and 60% protein bound in human plasma.

[4] = Plasma pharmacokinetics in dogs; format: in vivo; conditions: dog, 3 mg/kg
From the text: The following pharmacokinetic parameters are computed from the individual plasma concentrations of the modified antihistamine compound using a noncompartmental approach and appropriate validated pharmacokinetic software (e.g., WinNonlin Professional). Concentration values reported as BLQ are set to zero. If concentration data are available, interim calculations are done (non-QC.d data) between periods if possible.
Dose proportionality following study medication is explored by analyzing natural log-transformed pharmacokinetic variables AUC(0-t), AUC(0-inf), and Cmax with a linear model including the natural log-transformed dose as covariates. […] The following parameters were estimated: • Cmax Maximum plasma concentration. • Tmax Time to maximum concentration. • Cmax and Tmax were reported directly from the concentration-time data. • AUC0-T Area under the plasma concentration-time curve from time […] to the last time point with measurable concentrations, estimated bylinear trapezoidal rule. • AUC0-00 Area under the plasma concentration-time curve extrapolated to infinity, calculated using the formula: AUC0-00=AUC0-1+C0/λ0 • Where Ct is the last measurable concentration in plasma and λz is the terminal phase elimination rate constant estimated using log-linear regression during the terminal elimination phase. […]

[5] = 1 h, read-out: percentage inhibition of specific binding

CC(CC(=O)O)N1CCC(=C2c3ccc(F)cc3COc3ccccc32)CC1 (stereo not shown) [Compound 37]
IC50 (M2 muscarinic receptor): > 10 µM | Ki (M2 muscarinic receptor): > 10 µM | inhibition at 1 µM (M2 muscarinic receptor; [5]): 14.6% | IC50 (M3 muscarinic receptor; M3 receptor binding (Table 19)): > 10 µM | Ki (M3 muscarinic receptor; M3 receptor binding (Table 19), read-out: Ki): > 10 µM | REM inhibition (adult male Wistar rats; 10 mg/kg): did not produce any REM inhibition | body temperature (adult male Wistar rats; 10 mg/kg): no disproportional reduction | locomotor activity (LMA) (adult male Wistar rats; 10 mg/kg): no disproportional reduction | rebound insomnia (adult male Wistar rats; 10 mg/kg): did not produce any REM inhibition or rebound insomnia | Cumulative NREM sleep time increase, adjusted for baseline and relative to vehicle (adult male Wistar rats; 10 mg/kg PO at CT-18): 53 min | absolute average sleep bout (adult male Wistar rats; 10 mg/kg PO at CT-18): 9 min | absolute longest sleep bout post-treatment (adult male Wistar rats; 10 mg/kg PO at CT-18): 18.3 min | average sleep bout length increase, adjusted for baseline and relative to vehicle (adult male Wistar rats; 10 mg/kg PO at CT-18): 5.3 min | longest sleep bout (LUSB), adjusted for baseline and relative to vehicle (adult male Wistar rats; 10 mg/kg PO at CT-18): 10.8 min | peak NREM sleep time (adult male Wistar rats; 10 mg/kg PO at CT-18): 64 % per hour | body temperature (adult male Wistar rats; 30 mg/kg): drop in body temperature occurred only at this high dose | locomotor activity (LMA) (adult male Wistar rats; 30 mg/kg): no disproportional reduction in LMA | rebound insomnia (adult male Wistar rats; 30 mg/kg): No rebound insomnia was observed | Cumulative NREM sleep time increase, adjusted for baseline and relative to vehicle (adult male Wistar rats; 30 mg/kg PO at CT-18): 62 min | absolute average sleep bout (adult male Wistar rats; 30 mg/kg PO at CT-18): 9 min | absolute longest sleep bout post-treatment (adult male Wistar rats; 30 mg/kg PO at CT-18): 25 min | average sleep bout length increase, adjusted for baseline and relative to vehicle (adult male Wistar rats; 30 mg/kg PO at CT-18): 5.6 min | longest sleep bout (LUSB), adjusted for baseline and relative to vehicle (adult male Wistar rats; 30 mg/kg PO at CT-18): 17.1 min | peak NREM sleep time (adult male Wistar rats; 30 mg/kg PO at CT-18): 72 % per hour | REM inhibition (adult male Wistar rats; 30 mg/kg at CT-18): did not produce any appreciable REM inhibition | percentage inhibition [1]: 6.51% | inhibition at 1 µM (Calcium Channel, Type N): 3.45% | IC50 (H1 histamine receptor): 0.0675 µM | Ki (H1 histamine receptor): 0.0258 µM | inhibition at 1 µM (H1 histamine receptor; [5]): 93.1% | Slope (H1 histamine receptor; H1 binding curve (Table 13)): −0.99 | IC50 (M1 muscarinic receptor): > 10 µM | Ki (M1 muscarinic receptor): > 10 µM | inhibition at 1 µM (M1 muscarinic receptor; [5]): 5.11% | inhibition at 1 µM [2]: 17.2%

CC(C)(CN1CCC(=C2c3ccc(F)cc3COc3ccccc32)CC1)C(=O)O [Compound 49a]
Ki (M2 muscarinic receptor; read-out: Ki M2): > 10 µM | protein bound [3]: 60% | Ki (M3 muscarinic receptor; read-out: Ki M3): > 10 µM | LUSB (adult male Wistar rats; dose 0.3 mg/kg oral at CT-18): 2.8 min | NREM (adult male Wistar rats; dose 0.3 mg/kg oral at CT-18): -6.6 min | LUSB (adult male Wistar rats; dose 1 mg/kg oral at CT-18): 4.3 min | NREM (adult male Wistar rats; dose 1 mg/kg oral at CT-18): 18.8 min | LUSB (adult male Wistar rats; dose 3 mg/kg oral at CT-18): 11.6 min | NREM (adult male Wistar rats; dose 3 mg/kg oral at CT-18): 37.2 min | LUSB (adult male Wistar rats; dose 10 mg/kg oral at CT-18): 14.1 min | NREM (adult male Wistar rats; dose 10 mg/kg oral at CT-18): 45.3 min | LUSB (adult male Wistar rats; dose 30 mg/kg oral at CT-18): 12.9 min | NREM (adult male Wistar rats; dose 30 mg/kg oral at CT-18): 49.1 min | Ki (H1 histamine receptor; read-out: Ki H1): 0.0695 µM | half-life [4]: 4.2 h | Tmax ([4]; after oral administration): 0.5 h | Ki (M1 muscarinic receptor; read-out: Ki M1): > 10 µM
